One data set concerns the target hERG K+ channel (Homo sapiens (Human), UniProt Q12809). Description: hERG assay, IonWorks patch clamp electrophysiology. The format is cell-based. The settings on record: Chinese Hamster Lung cell line stably expressing hERG, IonWorks Quattro, max 11 uM. The method, then: Compounds of the invention were tested for inhibition of the human ether a go-go related gene (hERG) K^+ channel using IonWorks patch clamp electrophysiology. 8 Point concentration-response curves were generated on two occasions using 3-fold serial dilutions from the maximum assay concentration (11 uM). Electrophysiological recordings were made from a Chinese Hamster Lung cell line stably expressing the full length hERG channel. Single cell ion currents were measured in the perforated patch clamp configuration (100 ug/mL amphoterocin) at room temperature using an IonWorks Quattro instrument. The internal solution contained 140 mM KCl, 1 mM MgCl2, 1 mM EGTA and 20 mM HEPES and was buffered to pH 7.3. The external solution contained 138 mM NaCl, 2.7 mM KCl, 0.9 mM CaCl2, 0.5 mM MgCl2, 8 mM Na2HPO4 and 1.5 mM KH2PO4, and was buffered to pH 7.3. Cells were clamped at a holding potential of […] for 30 s and then stepped to +40 mV for 1 s. This was followed by a hyperpolarising step of 1 s to […] to evoke the hERG tail current. This sequence was repeated 5 times at a frequency of 0.25 Hz. Currents were measured from the tail step at the 5th pulse, and referenced to the holding current. […] A minimum of 17 cells were required for each pIC50 curve fit.

The next data set concerns the target human SSAO (Homo sapiens (Human), UniProt Q16853). Description: SSAO enzyme inhibition assay (benzylamine substrate; hydrogen peroxide/HRP or aldehyde detection). The data set is classed as biochemical. The settings on record: purified recombinantly expressed human SSAO, RT. The method, then: All primary assays were performed at RT. with purified recombinantly expressed human SSAO. Enzyme was prepared essentially as described in Öhman et al. (Protein Expression and Purification 46 (2006) 321-331). In addition, secondary- and selectivity assays were performed using SSAO prepared from various tissues or purified rat recombinant SSAO. The enzyme activity was assayed with benzylamine as substrate by measuring either benzaldehyde production, using ^14C-labeled substrate, or by utilizing the production of hydrogen peroxide in a horseradish peroxidase (HRP) coupled reaction. Briefly, test compounds were dissolved in dimethyl sulfoxide (DMSO) to a concentration of 10 mM. Dose-response measurements were assayed by either creating 1:10 serial dilutions in DMSO to produce a 7 point curve or by making 1:3 serial dilutions in DMSO to produce 11 point curves. The top concentrations were adjusted depending on the potency of the compounds and subsequent dilution in reaction buffer yielded a final DMSO concentration ≦2%.
In a horseradish peroxidase (HRP) coupled reaction, hydrogen peroxide oxidation of 10-acetyl-3,7-dihydroxyphenoxazine produced resorufin, which is a highly fluorescent compound (Zhout and Panchuk-Voloshina. Analytical Biochemistry 253 (1997) 169-174; Amplex® Red Hydrogen Peroxide/peroxidase Assay kit, Invitrogen A22188). Enzyme and compounds in 50 mM sodium phosphate, pH 7.4 were set to pre-incubate in flat-bottomed microtiter plates for approximately 15 min before initiating the reaction by addition of a mixture of HRP, benzylamine and Amplex reagent. Benzylamine concentration was fixed at a concentration corresponding to the Michaelis constant, determined using standard procedures. Fluorescence intensity was then measured at several time points during 1-2 h, exciting at 544 nm and reading the emission at 590 nm. For the human SSAO assay final concentrations of the reagents in the assay wells were: SSAO enzyme 1 ug/ml, benzylamine 100 uM, Amplex reagent 20 uM, HRP 0.1 U/mL and varying concentrations of test compound. The inhibition was measured as % decrease of the signal compared to a control without inhibitor (only diluted DMSO). The background signal from a sample containing no SSAO enzyme was subtracted from all data points. Data was fitted to a four parameter logistic model and IC50 values were calculated using the GraphPad Prism 4 or XLfit 4 programs.
SSAO activity was assayed using […] benzylamine and analysed by measuring radioactive benzaldehyde. In a white 96-well optiplate (Packard), 20 uL of diluted test compound was pre-incubated at room temperature with 20 uL SSAO enzyme for approximately 15 min with continuous agitation. All dilutions were made with PBS. The reaction was initiated by adding 20 uL of the benzylamine substrate solution containing Benzylamine hydrochloride (CFA589, GE Healthcare). The plate was incubated for 1 h as above after which the reaction was stopped by acidification (10 uL 1M aq HCl). Then 90 uL Micro Scint-E solution (Perkin-Elmer) was added to each well and the plate was continuously mixed for 15 min. Phase separation occurred instantly and activity was read in a Topcount scintillation counter (Perkin-Elmer). In the final reaction well, the human recombinant SSAO concentration was 10 ug/ml. In order to optimize sensitivity, the substrate concentration was decreased as compared to the HRP coupled assay in order to get a higher fraction of radioactive product. In the human SSAO assay, benzylamine concentration was 40 uM (0.2 uCi/mL). Data was analysed as above.

pIC50: −log10 of the molar value.

For orientation: pIC50 means −log10 of the IC50, conventionally taken in molar units.

Sequence of human SSAO (Q16853 whole entry): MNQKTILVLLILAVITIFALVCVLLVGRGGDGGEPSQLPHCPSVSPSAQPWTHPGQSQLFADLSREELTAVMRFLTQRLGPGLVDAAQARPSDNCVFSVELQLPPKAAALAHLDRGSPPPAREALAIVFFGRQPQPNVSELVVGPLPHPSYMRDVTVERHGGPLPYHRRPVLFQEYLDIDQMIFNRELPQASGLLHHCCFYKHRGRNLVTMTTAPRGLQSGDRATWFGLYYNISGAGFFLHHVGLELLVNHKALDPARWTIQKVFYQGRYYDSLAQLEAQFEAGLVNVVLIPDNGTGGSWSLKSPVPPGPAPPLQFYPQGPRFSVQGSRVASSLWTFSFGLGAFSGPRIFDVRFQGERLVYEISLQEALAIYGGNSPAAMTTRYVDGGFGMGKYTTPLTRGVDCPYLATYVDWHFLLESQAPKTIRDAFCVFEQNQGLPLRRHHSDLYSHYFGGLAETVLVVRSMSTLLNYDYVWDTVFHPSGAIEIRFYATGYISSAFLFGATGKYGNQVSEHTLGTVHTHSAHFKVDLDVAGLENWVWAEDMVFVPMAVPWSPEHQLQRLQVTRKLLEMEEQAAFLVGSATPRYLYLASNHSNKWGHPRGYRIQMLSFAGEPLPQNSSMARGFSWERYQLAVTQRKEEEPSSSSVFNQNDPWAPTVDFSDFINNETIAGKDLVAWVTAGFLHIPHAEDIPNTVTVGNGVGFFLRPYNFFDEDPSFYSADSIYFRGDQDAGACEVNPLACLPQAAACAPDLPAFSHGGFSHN
Sequence of hERG K+ channel (Q12809 whole entry): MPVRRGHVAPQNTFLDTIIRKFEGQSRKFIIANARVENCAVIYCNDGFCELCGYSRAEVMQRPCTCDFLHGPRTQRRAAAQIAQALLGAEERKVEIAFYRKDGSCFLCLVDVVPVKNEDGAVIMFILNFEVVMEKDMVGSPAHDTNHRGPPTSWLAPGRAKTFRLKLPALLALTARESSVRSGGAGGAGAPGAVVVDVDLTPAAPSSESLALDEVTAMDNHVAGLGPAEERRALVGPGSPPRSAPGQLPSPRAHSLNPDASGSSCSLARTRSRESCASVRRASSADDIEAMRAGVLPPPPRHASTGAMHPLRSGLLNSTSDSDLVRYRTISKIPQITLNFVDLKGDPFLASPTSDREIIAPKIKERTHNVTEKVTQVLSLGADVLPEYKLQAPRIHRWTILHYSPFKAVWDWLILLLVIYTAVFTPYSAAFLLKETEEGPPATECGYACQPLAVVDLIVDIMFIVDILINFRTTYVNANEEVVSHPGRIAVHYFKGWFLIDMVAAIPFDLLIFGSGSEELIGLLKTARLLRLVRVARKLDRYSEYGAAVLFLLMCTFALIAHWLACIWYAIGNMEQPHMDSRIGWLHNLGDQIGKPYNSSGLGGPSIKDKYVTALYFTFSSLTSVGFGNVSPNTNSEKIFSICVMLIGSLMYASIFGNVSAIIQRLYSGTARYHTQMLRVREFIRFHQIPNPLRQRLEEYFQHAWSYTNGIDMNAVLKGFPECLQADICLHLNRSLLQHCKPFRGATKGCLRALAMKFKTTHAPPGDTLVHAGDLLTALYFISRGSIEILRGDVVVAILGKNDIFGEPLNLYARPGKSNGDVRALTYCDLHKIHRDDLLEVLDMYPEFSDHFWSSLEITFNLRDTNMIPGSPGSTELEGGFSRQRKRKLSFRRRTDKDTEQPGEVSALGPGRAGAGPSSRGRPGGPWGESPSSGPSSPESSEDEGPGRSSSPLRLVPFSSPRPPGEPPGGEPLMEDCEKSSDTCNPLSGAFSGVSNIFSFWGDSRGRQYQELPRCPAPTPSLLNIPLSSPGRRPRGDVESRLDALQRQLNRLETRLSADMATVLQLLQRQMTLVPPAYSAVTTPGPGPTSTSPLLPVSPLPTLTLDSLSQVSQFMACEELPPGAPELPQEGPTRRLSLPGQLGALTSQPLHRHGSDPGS

For `NC(=O)N1CCC(c2c(-c3ccc(N)nc3)n(-c3ccc(Cl)cc3)c3cnccc23)CC1` [Example 1, 4-[2-(6-Aminopyridin-3-yl)-1-(4-chlorophenyl)-1H-pyrrolo[2,3-c]pyridin-3-yl]piperidine-1-carboxamide], the pIC50 on hERG K+ channel (human, pH 7.3) was 5.00 to 6.00; on human SSAO, above 8.00.

As for `NC(=O)N1CCC(c2c(-c3cccnc3)n(-c3ccc(Cl)cc3)c3cnccc23)CC1` [Example 2, 4-[1-(4-Chlorophenyl)-2-(pyridin-3-yl)-1H-pyrrolo[2,3-c]pyridin-3-yl]piperidine-1-carboxamide; formic acid], the pIC50 against hERG K+ channel (human, pH 7.3) was 5.00 to 6.00; at human SSAO, 7.00 to 8.00.

Consider `COc1ccc(-c2c(C3CCN(C(N)=O)CC3)c3ccncc3n2-c2ccc(Cl)cc2)cn1` [Example 3, 4-[1-(4-Chlorophenyl)-2-(6-methoxypyridin-3-yl)-1H-pyrrolo[2,3-c]pyridin-3-yl]piperidine-1-carboxamide; formic acid], for which, on human SSAO, the pIC50 was above 8.00.

For `COc1cc(-c2c(C3CCN(C(N)=O)CC3)c3ccncc3n2-c2ccc(Cl)cc2)ccn1` [Example 4, 4-[1-(4-Chlorophenyl)-2-(2-methoxypyridin-4-yl)-1H-pyrrolo[2,3-c]pyridin-3-yl]piperidine-1-carboxamide; formic acid], the negative-log IC50 (pIC50) on hERG K+ channel is 6.00 to 7.00; on human SSAO, above 8.00.

`CN1CCN(c2cc(-c3c(C4CCN(C(N)=O)CC4)c4ccncc4n3-c3ccc(Cl)cc3)ccn2)CC1` [Example 5, 4-[1-(4-Chlorophenyl)-2-[2-(4-methylpiperazin-1-yl)pyridin-4-yl]-1H-pyrrolo[2,3-c]pyridin-3-yl]piperidine-1-carboxamide; bis(formic acid)]: the pIC50 at human SSAO was above 8.00.

Consider `NC(=O)N1CCC(c2c(-c3ccc(N4CCOCC4)nc3)n(-c3ccc(Cl)cc3)c3cnccc23)CC1` [Example 6, 4-[1-(4-Chlorophenyl)-2-[6-(morpholin-4-yl)pyridin-3-yl]-1H-pyrrolo[2,3-c]pyridin-3-yl]piperidine-1-carboxamide], for which, on human SSAO, the pIC50 was above 8.00.

Regarding `NC(=O)N1CCC(c2c(-c3cncnc3)n(-c3ccc(Cl)cc3)c3cnccc23)CC1` [Example 7, 4-[1-(4-Chlorophenyl)-2-(pyrimidin-5-yl)-1H-pyrrolo[2,3-c]pyridin-3-yl]piperidine-1-carboxamide], the pIC50 is 5.00 to 6.00 against hERG K+ channel (human, pH 7.3) and 7.00 to 8.00 at human SSAO.

Turning to `NC(=O)N1CCC(c2c(-c3cc[nH]n3)n(-c3ccc(Cl)cc3)c3cnccc23)CC1` [Example 8, 4-[1-(4-Chlorophenyl)-2-(1H-pyrazol-3-yl)-1H-pyrrolo[2,3-c]pyridin-3-yl]piperidine-1-carboxamide], the pIC50 against hERG K+ channel (human, pH 7.3) is 5.00 to 6.00; at human SSAO it was 7.00 to 8.00.

With `NC(=O)N1CCC(c2c(-c3cn[nH]c3)n(-c3ccc(Cl)cc3)c3cnccc23)CC1` [Example 9, 4-[1-(4-Chlorophenyl)-2-(1H-pyrazo1-4-yl)-1H-pyrrolo[2,3-c]pyridin-3-yl]piperidine-1-carboxamide], the pIC50 on hERG K+ channel was below 5.00; at human SSAO, above 8.00.

As for `Cn1cc(-c2c(C3CCN(C(N)=O)CC3)c3ccncc3n2-c2ccc(Cl)cc2)cn1` [Example 10, 4-[1-(4-Chlorophenyl)-2-(1-methyl-1H-pyrazol-4-yl)-1H-pyrrolo[2,3-c]pyridin-3-yl]piperidine-1-carboxamide; trifluoroacetic acid], on human SSAO, the pIC50 is above 8.00.

`Cn1nccc1-c1c(C2CCN(C(N)=O)CC2)c2ccncc2n1-c1ccc(Cl)cc1` [Example 11, 4-[1-(4-Chlorophenyl)-2-(1-methyl-1H-pyrazol-5-yl)-1H-pyrrolo[2,3-c]pyridin-3-yl]piperidine-1-carboxamide]: on human SSAO, the pIC50 was above 8.00.

Regarding `Cn1cncc1-c1c(C2CCN(C(N)=O)CC2)c2ccncc2n1-c1ccc(Cl)cc1` [Example 12, 4-[1-(4-Chlorophenyl)-2-(1-methyl-1H-imidazol-5-yl)-1H-pyrrolo[2,3-c]pyridin-3-yl]piperidine-1-carboxamide], the results for the pIC50 against hERG K+ channel and at human SSAO were below 5.00 and above 8.00, respectively.

For the molecule `NC(=O)N1CCC(c2c(-n3cccn3)n(-c3ccc(Cl)cc3)c3cnccc23)CC1` [Example 13, 4-[1-(4-Chlorophenyl)-2-(1H-pyrazol-1-yl)-1H-pyrrolo[2,3-c]pyridin-3-yl]piperidine-1-carboxamide; formic acid], the pIC50 is 5.00 to 6.00 against hERG K+ channel (human, pH 7.3) and 7.00 to 8.00 on human SSAO.

On to `NC(=O)N1CCC(c2c(-n3ccnc3)n(-c3ccc(Cl)cc3)c3cnccc23)CC1` [Example 14, 4-[1-(4-Chlorophenyl)-2-(1H-imidazol-1-yl)-1H-pyrrolo[2,3-c]pyridin-3-yl]piperidine-1-carboxamide; bis(formic acid)], for which the pIC50 on hERG K+ channel is below 5.00; on human SSAO, 7.00 to 8.00.

Take `NC(=O)N1CCC(c2c(-n3ccnn3)n(-c3ccc(Cl)cc3)c3cnccc23)CC1` [Example 15, 4-[1-(4-Chlorophenyl)-2-(1H-1,2,3-triazol-1-yl)-1H-pyrrolo[2,3-c]pyridin-3-yl]piperidine-1-carboxamide]: on human SSAO, the pIC50 is 6.46 to 7.00.

As for `NC(=O)N1CCC(c2c(-n3cncn3)n(-c3ccc(Cl)cc3)c3cnccc23)CC1` [Example 16, 4-[1-(4-Chlorophenyl)-2-(1H-1,2,4-triazol-1-yl)-1H-pyrrolo[2,3-c]pyridin-3-yl]piperidine-1-carboxamide], the pIC50 on human SSAO was 6.46 to 7.00.

Regarding `Clc1ccc(-n2c(-c3ccncc3)c(C3CCNCC3)c3ccncc32)cc1` [Example 17, 4-[1-(4-Chlorophenyl)-3-(piperidin-4-yl)-1H-pyrrolo[2,3-c]pyridin-2-yl]pyridine], the pIC50 on hERG K+ channel (human, pH 7.3) was 5.00 to 6.00; on human SSAO, above 8.00.

Turning to `Nc1ccc(-c2c(C3CCNCC3)c3ccncc3n2-c2ccc(Cl)cc2)cn1` [Example 18, 5-[1-(4-Chlorophenyl)-3-(piperidin-4-yl)-1H-pyrrolo[2,3-c]pyridin-2-yl]pyridin-2-amine], the pIC50 at hERG K+ channel was below 5.00; on human SSAO, 7.00 to 8.00.

For `CN(C)Cc1c(-c2ccncc2)n(-c2ccc(Cl)cc2)c2cnccc12` [Example 19, {[1-(4-Chlorophenyl)-2-(pyridin-4-yl)-1H-pyrrolo[2,3-c]pyridin-3-yl]methyl}dimethyl amine], the pIC50 against hERG K+ channel (human, pH 7.3) was 5.00 to 6.00; on human SSAO, 7.00 to 8.00.

As for `CN(C)Cc1c(-c2cccnc2)n(-c2ccc(Cl)cc2)c2cnccc12` [Example 20, {[1-(4-Chlorophenyl)-2-(pyridin-3-yl)-1H-pyrrolo[2,3-c]pyridin-3-yl]methyl}dimethyl amine], the pIC50 on human SSAO is 6.46 to 7.00.

For `Clc1ccc(-n2c(-c3nn[nH]n3)c(C3CCNCC3)c3ccncc32)cc1` [Example 21, 4-[1-(4-Chlorophenyl)-2-(2H-1,2,3,4-tetrazol-5-yl)-1H-pyrrolo[2,3-c]pyridin-3-yl]piperidine; bis(trifluoroacetic acid)], the pIC50 on hERG K+ channel was below 5.00; at human SSAO it was 6.46 to 7.00.

These data come from patent US9580415B2, “Compounds” (Proximagen Limited, priority 2013, dated 2017).
